Reference: PMC5352699, “Synthesis and in vitro antitumor activity of (1E,4E)-1-aryl-5-(2-((quinazolin-4-yl)oxy)phenyl)-1,4-pentadien-3-one derivatives” (Chemistry Central Journal, 2017)

Legend:
[1] = system: human gastric cancer cell line MGC-803; assay: MTT assay, MGC-803 cells; assay type: cell-based; conditions: for inhibition at 10 µM: 72 h, read-out: Inhibition rates against different cells (%) MGC-803; for IC50: 72 h after treatment
Description: (§1) The in vitro antitumor activity of the newly synthesized compounds 5a–5n were evaluated against a panel of three human cancer cell lines, including human gastric cancer cell line MGC-803, human prostate cancer cell line PC3, and human breast cancer cell line Bcap-37, and one normal cell line NIH3T3 (mouse embryo fibroblast cell line) by MTT method. Adriamycin (ADM) was chosen as a reference drug due to its availability and widespread use. Each experiment was repeated at least three times.
(§2) Human gastric cancer cell line MGC-803, human prostate cancer cell line PC3, and human breast cancer cell line Bcap-37 and one normal cell line NIH3T3 were obtained from Cell Bank of Type Culture Collection of Chinese Academy of Sciences (Shanghai, China). NIH3T3 was routinely maintained in a DMEM medium, while all the other cell lines were cultured in a 1640 medium. All the cells were grown in the medium supplemented with 10% FBS at 37 °C with 5% CO2.
(§3) The growth-inhibitory effects of the test compounds were determined on MGC-803, PC3, Bcap-37, and NIH3T3 cells. All cell types were seeded into 96-well plates at a density of 2 × 10^3 cells/well 100 μL of the proper culture medium and incubated with increasing concentrations of the compounds at 37 °C under cell culturing conditions. An MTT assay (Roche Molecular Biochemicals, 1465-007) was performed 72 h later according to the instructions provided by Roche. The precipitated formazan crystals were dissolved in SDS, and the absorbance was read at 595 nm with a microplate reader (BIO-RAD, model 680), which is directly proportional to the number of living cells in culture. The experiment was performed in triplicate. The percentage cytotoxicity was calculated using the formula. %Cytotoxicity=Controlabs-Blankabs-Testabs-Blankabs/Controlabs-Blankabs×100

[2] = system: human prostate cancer cell line PC3; assay: MTT assay, PC3 cells; assay type: cell-based; conditions: for inhibition at 10 µM: PC-3, 10 μM, 72 h, read-out: Inhibition rates against different cells (%) PC3; for IC50: PC-3, 72 h after treatment
Description: as §1, §2, §3

[3] = system: human breast cancer cell line Bcap-37; assay: MTT assay, Bcap-37 cells; assay type: cell-based; conditions: for inhibition at 10 µM: Bcap37, 10 μM, 72 h, read-out: Inhibition rates against different cells (%) Bcap-37; for IC50: Bcap37, 72 h after treatment
Description: as §1, §2, §3

[4] = system: normal cell line NIH3T3 (mouse embryo fibroblast cell line); assay: MTT assay, NIH3T3 normal cells; assay type: cell-based; conditions: 72 h, read-out: Inhibition rates against different cells (%) NIH3T3
Description: as §1, §2, §3

Structure (SMILES)	inhibition at 10 µM [1]	IC50 [1]	inhibition at 10 µM [2]	IC50 [2]	inhibition at 10 µM [3]	IC50 [3]	inhibition at 10 µM [4]	melting point
COc1cccc2c1C(=O)c1c(O)c3c(c(O)c1C2=O)C[C@@](O)(C(=O)CO)C[C@@H]3O[C@H]1C[C@H](N)[C@H](O)[C@H](C)O1 [ADM, Adriamycin, reference compound]	97.5 ± 1.2%	0.74 ± 0.24 µM	91.2 ± 0.4%	1.01 ± 0.2 µM	94.5 ± 0.9%	1.9 ± 0.25 µM	100 ± 0.7%	–
Cc1ccc2ncnc(Oc3ccccc3/C=C/C(=O)/C=C/c3ccccc3F)c2c1 [Compound 5a, (1E,4E)-1-(2-fluorophenyl)-5-(2-((6-methylquinazolin-4-yl)oxy)phenyl)penta-1,4-dien-3-one]	71.9 ± 0.9%	7.69 ± 0.37 µM	68.5 ± 2.3%	9.24 ± 0.46 µM	44.1 ± 2.6%	11.7 ± 0.39 µM	65.7 ± 1.3%	–
Cc1ccc2ncnc(Oc3ccccc3/C=C/C(=O)/C=C/c3ccccc3Cl)c2c1 [Compound 5b, (1E,4E)-1-(2-chlorophenyl)-5-(2-((6-methylquinazolin-4-yl)oxy)phenyl)penta-1,4-dien-3-one]	83.5 ± 1.5%	5.2 ± 0.51 µM	78.7 ± 2.4%	8.12 ± 0.46 µM	57.3 ± 2%	10.1 ± 0.67 µM	15.4 ± 1.5%	152 to 154 °C
Cc1ccc2ncnc(Oc3ccccc3/C=C/C(=O)/C=C/c3ccc(Cl)cc3)c2c1 [Compound 5c, (1E,4E)-1-(4-chlorophenyl)-5-(2-((6-methylquinazolin-4-yl)oxy)phenyl)penta-1,4-dien-3-one]	79.2 ± 2.8%	5.44 ± 0.45 µM	76.5 ± 1.7%	7.85 ± 0.32 µM	54.2 ± 1.1%	9.34 ± 0.52 µM	16.1 ± 2.7%	173 to 176 °C
Cc1ccc2ncnc(Oc3ccccc3/C=C/C(=O)/C=C/c3cc([N+](=O)[O-])ccc3Cl)c2c1 [Compound 5d, (1E,4E)-1-(2-chloro-5-nitrophenyl)-5-(2-((6-methylquinazolin-4-yl)oxy)phenyl)penta-1,4-dien-3-one]	87.5 ± 0.2%	1.72 ± 0.22 µM	86.3 ± 0.8%	2.68 ± 0.43 µM	58.5 ± 1.3%	7.52 ± 0.36 µM	71.9 ± 1.4%	–
Cc1ccc2ncnc(Oc3ccccc3/C=C/C(=O)/C=C/c3ccc(Cl)cc3Cl)c2c1 [Compound 5e, (1E,4E)-1-(2,4-dichlorophenyl)-5-(2-((6-methylquinazolin-4-yl)oxy)phenyl)penta-1,4-dien-3-one]	87 ± 1%	1.89 ± 0.26 µM	75.2 ± 7.8%	4.71 ± 0.36 µM	67.3 ± 3.9%	9.6 ± 0.42 µM	53.8 ± 1.8%	211 to 214 °C
COc1ccc(OC)c(/C=C/C(=O)/C=C/c2ccccc2Oc2ncnc3ccc(C)cc23)c1 [Compound 5g]	85.9 ± 1.2%	2.02 ± 0.37 µM	83.1 ± 2.8%	2.18 ± 0.31 µM	74.9 ± 2%	5.61 ± 0.5 µM	74.3 ± 0.9%	122 to 123 °C
Cc1cccc2c(Oc3ccccc3/C=C/C(=O)/C=C/c3ccccc3F)ncnc12 [Compound 5h, (1E,4E)-1-(2-fluorophenyl)-5-(2-((8-methylquinazolin-4-yl)oxy)phenyl)penta-1,4-dien-3-one]	62.3 ± 1.4%	9.06 ± 0.4 µM	43.7 ± 12.1%	11.7 ± 0.48 µM	36.6 ± 2.7%	15.6 ± 0.51 µM	13.4 ± 2.2%	–
Cc1cccc2c(Oc3ccccc3/C=C/C(=O)/C=C/c3ccccc3Cl)ncnc12 [Compound 5i, (1E,4E)-1-(2-chlorophenyl)-5-(2-((8-methylquinazolin-4-yl)oxy)phenyl)penta-1,4-dien-3-one]	79.4 ± 2.4%	7.78 ± 0.48 µM	65.1 ± 2.6%	9.36 ± 0.52 µM	47.1 ± 2.6%	10.7 ± 0.62 µM	14.4 ± 2.6%	152 to 154 °C
